Measured values reported in patent US9981942B2, “Piperidine derivatives having multimodal activity against pain” (LABORATORIOS DEL DR. ESTEVE S.A., priority 2013, dated 2018).

Test system: σ1 receptor and the μ-opiod receptor
Assay: μ and σ1 dual binding: combined class from the Ki of both radioligand assays
Set-up: species or system human; key to μ and σ1 dual binding: +: Both Ki-μ and Ki-σ1>=500 nM; ++: One Ki<500 nM while the other Ki is >=500 nM; +++: Both Ki-μ and Ki-σ1<500 nM; ++++: Both Ki-μ and Ki-σ1<100 nM
Settings: transfected HEK-293 membranes (σ1), transfected CHO-K1 cell membranes (μ); for μ and σ1 dual binding: combined class for Ki-μ and Ki-σ1
Procedure: To investigate binding properties of σ1 receptor ligands to human σ1 receptor, transfected HEK-293 membranes and [^3H](+)-pentazocine (Perkin Elmer, NET-1056), as the radioligand, were used. The assay was carried out with 7 μg of membrane suspension, 5 nM of [^3H](+)-pentazocine in either absence or presence of either buffer or 10 μM Haloperidol for total and non-specific binding, respectively. Binding buffer contained Tris-HCl 50 mM at pH 8. Plates were incubated at 37° C. for 120 minutes. After the incubation period, the reaction mix was then transferred to MultiScreen HTS, FC plates (Millipore), filtered and plates were washed 3 times with ice-cold 10 mM Tris-HCL (pH7.4). Filters were dried and counted at approximately 40% efficiency in a MicroBeta scintillation counter (Perkin-Elmer) using EcoScint liquid scintillation cocktail
To investigate binding properties of mu-opioid receptor ligands to human μ-opioid receptor, transfected CHO-K1 cell membranes and [^3H]-DAMGO (Perkin Elmer, ES-542-C), as the radioligand, were used. The assay was carried out with 20 μg of membrane suspension, 1 nM of [^3H]-DAMGO in either absence or presence of either buffer or 10 μM Naloxone for total and non-specific binding, respectively. Binding buffer contained Tris-HCl 50 mM, MgCl2 5 mM at pH 7.4. Plates were incubated at 27° C. for 60 minutes. After the incubation period, the reaction mix was then transferred to MultiScreen HTS, FC plates (Millipore), filtered and plates were washed 3 times with ice-cold 10 mM Tris-HCL (pH 7.4). Filters were dried and counted at approximately 40% efficiency in a MicroBeta scintillation counter (Perkin-Elmer) using EcoScint liquid scintillation cocktail.
The following scale as been adopted for representing the binding to the σ1 receptor and the μ-opiod receptor expressed as Ki: • + Both Ki-μ and Ki-σ1>=500 nM • ++ One Ki<500 nM while the other Ki is >=500 nM • +++ Both Ki-μ and Ki-σ1<500 nM • ++++ Both Ki-μ and Ki-σ1<100 nM

c1ccc(-n2cc(CN3CCC(c4cccc5[nH]cnc45)CC3)nn2)cc1 [Example 11, 4-(1-((1-phenyl-1H-1,2,3-triazol-4-yl)methyl)piperidin-4-yl)-1H-benzo[d]imidazole]
μ and σ1 dual binding: ++

Oc1ccc(C(F)(F)F)c(C2CCN(Cc3cn(-c4ccccc4)nn3)CC2)c1 [Example 12, 3-(1-((1-phenyl-1H-1,2,3-triazol-4-yl)methyl)piperidin-4-yl)-4-(trifluoromethyl)phenol]
μ and σ1 dual binding: ++

O=c1[nH]c2cccc(C3CCN(Cc4cn(-c5ccccc5)nn4)CC3)c2[nH]1 [Example 13, 4-(1-((1-phenyl-1H-1,2,3-triazol-4-yl)methyl)piperidin-4-yl)-1H-benzo[d]imidazol-2(3H)-one]
μ and σ1 dual binding: ++

Oc1cccc(C2CCN(Cc3cn(-c4ccncc4)nn3)CC2)c1 [Example 14, 3-(1-((1-(pyridin-4-yl)-1H-1,2,3-triazol-4-yl)methyl)piperidin-4-yl)phenol]
Ki range for both μ and σ1 (dual-binding class): < 500 nM

Oc1cccc(C2CCN(Cc3cn([C@@H]4c5ccccc5C[C@H]4O)nn3)CC2)c1 [Example 15, (1R,2R)-1-(4-((4-(3-hydroxyphenyl)piperidin-1-yl)methyl)-1H-1,2,3-triazol-1-yl)-2,3-dihydro-1H-inden-2-ol]
Ki range for both μ and σ1 (dual-binding class): < 500 nM

CS(=O)(=O)Nc1cccc(C2CCN(Cc3cn(-c4ccc(F)cc4)nn3)CC2)c1 [Example 16, N-(3-(1-((1-(4-fluorophenyl)-1H-1,2,3-triazol-4-yl)methyl)piperidin-4-yl)phenyl)methanesulfonamide]
Ki range for both μ and σ1 (dual-binding class): < 500 nM

CNS(=O)(=O)c1cccc(C2CCN(Cc3cn(-c4ccccc4)nn3)CC2)c1 [Example 17, N-methyl-3-(1-((1-phenyl-1H-1,2,3-triazol-4-yl)methyl)piperidin-4-yl)benzenesulfonamide]
μ and σ1 dual binding: ++

CS(=O)(=O)Nc1ccc(F)c(C2CCN(Cc3cn(-c4ccccc4)nn3)CC2)c1 [Example 18, N-(4-fluoro-3-(1-((1-phenyl-1H-1,2,3-triazol-4-yl)methyl)piperidin-4-yl)phenyl)methanesulfonamide]
Ki range for both μ and σ1 (dual-binding class): < 100 nM

Oc1cccc(C2CCN(Cc3cn(C4CCCCC4)nn3)CC2)c1 [Example 19, 3-(1-((1-cyclohexyl-1H-1,2,3-triazol-4-yl)methyl)piperidin-4-yl)phenol]
Ki range for both μ and σ1 (dual-binding class): < 100 nM

CS(=O)(=O)Nc1ccc(C(F)(F)F)c(C2CCN(Cc3cn(-c4ccccc4)nn3)CC2)c1 [Example 20, N-(3-(1-((1-phenyl-1H-1,2,3-triazol-4-yl)methyl)piperidin-4-yl)-4-(trifluoromethyl)phenyl)methanesulfonamide]
μ and σ1 dual binding: ++

c1ccc(-n2cc(CN3CCC(c4ccc5nc[nH]c5c4)CC3)nn2)cc1 [Example 21, 6-(1-((1-phenyl-1H-1,2,3-triazol-4-yl)methyl)piperidin-4-yl)-1H-benzo[d]imidazole]
Ki range for both μ and σ1 (dual-binding class): < 500 nM

CS(=O)(=O)Nc1cccc(C2CCN(Cc3cn(C4CCCCC4)nn3)CC2)c1 [Example 22, N-(3-(1-((1-cyclohexyl-1H-1,2,3-triazol-4-yl)methyl)piperidin-4-yl)phenyl)methanesulfonamide]
Ki range for both μ and σ1 (dual-binding class): < 500 nM

CC(C)n1cc(CN2CCC(c3cccc(O)c3)CC2)nn1 [Example 23, 3-(1-((1-isopropyl-1H-1,2,3-triazol-4-yl)methyl)piperidin-4-yl)phenol]
Ki range for both μ and σ1 (dual-binding class): < 500 nM

CC(C)Cn1cc(CN2CCC(c3cccc(O)c3)CC2)nn1 [Example 25, 3-(1-((1-isobutyl-1H-1,2,3-triazol-4-yl)methyl)piperidin-4-yl)phenol]
Ki range for both μ and σ1 (dual-binding class): < 100 nM

c1ccc(-n2cc(CN3CCC(c4ccc5cn[nH]c5c4)CC3)nn2)cc1 [Example 26, 6-(1-((1-phenyl-1H-1,2,3-triazol-4-yl)methyl)piperidin-4-yl)-1H-indazole]
μ and σ1 dual binding: ++
